From article PMC6269819, “Evaluation of the Biological Activity of Naturally Occurring 5,8-Dihydroxycoumarin” (Molecules, 2013)
Marks after values point to notes of the source that are not given here.

What was measured:
male rat hepatocytes = conditions: cited from earlier work
[1] = test system: Wistar rat bone marrow cells; conditions: rats, single 30–40 mg/kg dose of CP; cited from earlier work
[2] = test system: Wistar rat bone marrow cells; experiment: Micronucleus in vivo assay in rat bone marrow; conditions: single i.p. 30 mg/kg b.w., sacrifice 24 h
Description: Male albino Wistar rats aged 8–10 weeks and having body weight of 200–220 g, were used in the present study. The animals were supplied by the Animal Facility of the Department of Immunology, State Research Institute Center for Innovative Medicine. Ethical approval was given by the Committee of the Lithuanian Animal Care and Use. Prior to the start of the study, the animals were acclimatized for 7 days. They were housed under conditions of constant temperature, humidity and a light/dark cycle of 12 h/12 h with free access to standard commercial pellet diet and drinking water. The animals were randomly distributed into 11 experimental groups of six rats each.
We used a mixture of dimethylsulfoxide (DMSO) and sunflower oil (1:2) as the vehicle for 5,8-DHC (5,8-DHC was dissolved in DMSO and adjusted to the desired dose with sunflower oil immediately before administration). For the acute treatment, the animals received single intraperitoneal (i.p.) injections of 10 or 20 mg/kg of 5,8-DHC in 1 mL volume per 100 g body weight (b.w.). The negative control group comprised animals, given a single i.p. injection of vehicle (1 mL/100 g b.w.) and the positive control group, given cyclophosphamide (CP, 30 mg/kg adjusted in 0.5 mL/100 g b.w. in sterile physiological saline). A commercial form of cyclophosphamide was used (‘Endoxan’, ASTA Medica AG, Frankfurt, Germany). Blank controls comprised untreated animals. For the repeated treatment, 5,8-DHC (10 or 20 mg/kg) or vehicle was administered via gavage (1 mL/100 g b.w.) once a day for 3 consecutive days. Animals were sacrificed 24 h or 48 h after the last dose administration. Colchicine was applied i.p. at a dose of 2 mg/kg b.w. in 1 mL volume 90 min before sacrifice. Both femurs were dissected from each animal and used to obtain bone marrow preparations for the analysis of chromosome aberrations and micronucleus.
The bone marrow MN assay was conducted according to the standard procedure. Ends of the femura were cut off and the bone marrow was washed out with 2 mL of heat-inactivated foetal calf serum (Biochrom AG, Berlin, Germany), mixed thoroughly to obtain a fine suspension and centrifuged for 5 min at 150 × g. The supernatant was discarded and the cell pellet was carefully re-suspended. At least two smears per animal were prepared and allowed to air dry prior to fixation with methanol. The slides were stained in May-Grünwald solution followed by Giemsa (both Merck), coded and scored blind by the same scorer under magnification of 1000× (Jenaval, Zeiss, Jena, Germany). Micronucleated polychromatic erythrocyte (MNPCE) frequencies were based on the observation of 2,000 immature polychromatic erythrocytes (PCEs). Bone marrow toxicity was monitored by a decrease of PCE to total erythrocytes (e.g., PCEs+NCEs, normochromatic erythrocytes). At least 1,000 bone marrow erythrocytes per animal were analysed.

human lymphocytes = experiment: Chromosome aberrations in human lymphocyte cultures in vitro; assay type: cell-based; conditions: female, human, 24 h, 0.02 µL/mL
Experimental: Blood samples were taken from two healthy female volunteers (donor A) and (donor B). Whole peripheral blood was grown in HEPES-buffered RPMI 1640 medium supplemented with 12% heat-inactivated newborn calf serum, 7.8 μg/mL phytohemagglutinin P, 50 μg/mL gentamycin, 10 μg/mL 5-bromo-2'-deoxyuridine. All reagents used for the cell culture were purchased from Sigma-Aldrich Chemical Co. (St. Louis, MO, USA). Cell cultures were incubated at 37 °C for 72 h. Treatment with test compounds was carried out 48 h after culture initiation and lasted for the period of 24 h. Dose range of 5,8-DHC (10 to 40 µg/mL) was based on pilot experiments (data not shown). As whole blood cultures display many properties common with the liver microsomal cytochrome P450 system, no external metabolising enzymes were added. 5,8-DHC was dissolved in ethanol and then diluted with RPMI 1640 medium to the desired concentration. Ethanol in a final concentration of 7.5µL/mL was used as a solvent control. […] Working solutions were made just before treatment. Two parallel cultures were used for each concentration of the compound tested. Two cultures were left untreated and served as a blank control. Methyl methanesulfonate (MMS) in a final concentration of 0.02 μL/mL was used as a positive control. The cultures were exposed to colchicine at a final concentration of 0.6 μg/mL for the last 3 h of incubation. The cells were harvested, hypotonically swollen in 0.075 M KCl and fixed in methanol: acetic acid (3:1). Air-dried slides were differentially stained by fluorescence plus Giemsa technique as has been described previously. Briefly, the slides were stained for 10 min. with 10 μg/mL of Hoechst 33258 dye (dissolved in 0.07 M Soerensen’s buffer, pH 6.8). Then the slides were rinsed, mounted with citrate buffer (pH 8.5), covered with cover slips and exposed to UV light (400 W mercury lamp at a distance of 15 cm) for 6–7 min. Slides were then rinsed and stained for 3–4 min. with 5% Giemsa. Cytogenetic analysis was performed on coded slides. No less than 100 first-mitotic division metaphases per culture were analysed for CAs, and no less than 50 second-division metaphases for SCEs.

[3] = test system: Drosophila melanogaster wing cells; experiment: Somatic mutation and recombination test (SMART), wing spot test; assay type: in vivo; conditions: positive control, 50 μM MMS
Experimental: The basic procedures for the D. melanogaster somatic mutation and recombination test (SMART) were performed according to Graf and co-workers. Two D. melanogaster strains (kindly provided by Dr. H. Frei, Zurich, Switzerland) were used in the present study: virgin females from the strain ORR/ORR; flr^3/ In (3LR) TM3, ri p^p sep l(3)89Aa bx^34e e Bd^S were mated with mwh/mwh males. The ORR strain has chromosomes 1 and 2 from a DDT-resistant Oregon line, which are characterized by constitutively over-expressed CYP450 genes. The CYP 450 enzymes play the main role in the bioactivation of xenobiotics, as well as natural products including phytochemicals. Thus, the use of this high-bioactivation strain of D. melanogaster facilitates the detection of promutagens of numerous classes of compounds. The markers mwh (multiple wing hairs) and flr^3 (misshapen, flare-like hairs) are recessive wing-hair mutations located on the third chromosome at 0.3 and 38.8 respectively.
Eggs from the crosses were collected over 10 h periods. Progeny were raised on the Instant Drosophila Medium (Sigma Chemical Co., St. Louis, MO, USA) at 25 °C. Two schedules of the larvae treatment were applied. Firstly, the crossed flies were permitted to lay eggs for 10 h in vials containing medium prepared with 5,8-DHC solution. Thus, the exposure duration was about 120 h (i.e., evolutionary period from fly egg till case-worm). According to the second schedule, the 72 ± 5 h-old larvae were exposed to 5,8-DHC by adding test solution to the surface of the medium and were fed on this medium for the rest of their development, during approximately 48 h. 5,8-DHC was dissolved in ethanol and then diluted with distilled water to the desired concentration, with the final ethanol concentration 5% v/v. The solutions were always prepared immediately before use. Solvent controls were included in all treatments. Methyl methanesulfonate was included in the assay as a positive control. Trans-heterozygous (mwh flr^+ / mwh^+ flr^3) flies were collected and stored in a 70% ethanol. The wings of adult flies were mounted on glass slides in Faure’s solution, coded and scored at 400× magnification (Nikon E200) for the presence of single (mwh or flr^3 phenotype) or twin (adjacent mwh and flr^3 clones) spots. The spots were recorded according to standard procedures. No less than 40 wings were analysed per each experimental point. Two repeated experiments were carried out.

[4] = test system: Chinese hamster ovary (CHO) cells; conditions: doses up to 333 μM; cited from earlier work

In the case of O=c1ccc2ccccc2o1 [coumarin, 1,2-benzopyrone], the “induction of UDS” value (male rat hepatocytes; oral administration, doses up to 320 mg/kg bw) is listed as “does not induce UDS” and the maximum tolerated dose (male rat hepatocytes; rat, in vivo, po) is listed as 320 mg/kg bw.

In the case of O=P1(N(CCCl)CCCl)NCCCO1 (stereo not drawn) [CP, cyclophosphamide, reference compound], the “frequency of abnormal metaphases” value [1] is given as 16–21%, the “MNPCE (%± S.E.M.)” value [2] is given as 1.67 ± 0.22 ^a % and the “PCE (%± S.E.M.)” value [2] is given as 34.8 ± 6.4%.

For COS(C)(=O)=O [MMS, Methyl methanesulfonate, reference compound], the “CA per 100 cells (±S.E.M.)” value (human lymphocytes) was 12.0 ± 3.2 ^b per 100 cells, the large single spots [3] was 4.63 and the small single spots [3] was 1.65. For the same molecule, the “total spots per wing” value [3] was 7.15 spots per wing, the twin spots [3] was 0.88 and the wings with spots [3] was 100%.

In the case of O=c1ccc2ccc(O)cc2o1 [umbelliferone, 7-hydroxycoumarin], the “increase in SCE or chromosome aberration” value [4] is given as “no evidence of increase”.
